Where a name gives a salt, the structure may show the parent alone. Read-outs that look alike come from different tables or passages of the source.
Experiments:
[1] = test system: P. aeruginosa biofilm; assay: static 24 hour old biofilm in microtiter dishes, CFU after treatment; format: cell-based; conditions: for synergistic antimicrobial effect in combination with acetic acid: combined with 0.5% acetic acid, static biofilm; for antimicrobial effect on static biofilm (CFU): 0.5% acetic acid
Description: AB minimal medium without acetic acid adjusted to different pH values was used as control.
AB minimal medium supplemented with increasing concentrations of tobramycin served as control. The biofilm were harvested and plated on LB plates to determine the CFU after treatment (For visual appearance “no growth” is arbitrarily given a CFU value of 2).
AB minimal medium without acetic acid, but supplemented with increasing concentrations of tobramycin served as control.
The wild-type P. aeruginosa PAO1 used for the planktonic and biofilm experiments was obtained from the Pseudomonas Genetic Stock Center (www.pseudomonas.med.ecu.edu, strain PAO0001). The wild-type S. aureus 8325-4, used for planktonic and biofilm experiments was described by Novick, R. P. 1967.
For plating, Luria broth (LB) medium mix with 2.0% agar was used. For all experiments including bacterial biofilms, AB minimal medium supplemented with glucose was used except if different is mentioned.
Planktonic cultures were grown in shake flasks at 37° C.
Static biofilm tolerance to acetic acid was assessed by exchanging the AB minimal medium of 24 h old biofilms with AB minimal medium supplemented with different concentrations of acetic acid or HCl as control. To raise the pH of either acetic acid or HCl, NaOH was added in different concentrations.
To elucidate a synergistic antimicrobial effect of acetic acid and antibiotics, static biofilms of P. aeruginosa were grown for 24 hours prior to subsequent treatment with increasing concentrations of tobramycin and 0.5% acetic acid in the pH interval 3-6.85. The pH was adjusted by supplementing the AB minimal medium with either HCl or NaOH.

[2] = test system: S. aureus 8325-4 biofilm
Description: (§1) The wild-type P. aeruginosa PAO1 used for the planktonic and biofilm experiments was obtained from the Pseudomonas Genetic Stock Center (www.pseudomonas.med.ecu.edu, strain PAO0001). The wild-type S. aureus 8325-4, used for planktonic and biofilm experiments was described by Novick, R. P. 1967. For plating, Luria broth (LB) medium mix with 2.0% agar was used. For all experiments including bacterial biofilms, AB minimal medium supplemented with glucose was used except if different is mentioned. […] The continuous flow system is based on once through flow chambers perfused with sterile AB minimal medium containing 0.3 mM glucose as described by Christensen et al. (1999). Continuous flow biofilm tolerance to acetic acid was assessed by growing P. aeruginosa or S. aureus biofilms for three days, then subsequently at day three to four supplementing the AB minimal medium with different concentrations of acetic acid or HCl (HCL served as a as control to acetic acid treatments). […] Due to the buffer capacity of the AB minimal medium used, the pH of the solution became 4.33. […] After the treatment the biofilm biomasses were harvested mechanically from the flow chambers and plated on LB plates for determination of viability. […] The kinetics of antimicrobial activity against mature biofilms was tested by treating a 3-day-old continuous flow chamber biofilms of either P. aeruginosa with 0.5% or S. aureus with 1.0% acetic acid for 24 hours. Due to the buffer capacity of the AB minimal medium used the pH of the solution became 4.33. […] After the treatment the biofilms were harvested mechanically, by scraping with a sterile scalpel, from the flow chambers and plated on LB plates for determination of viable counts.

[3] = test system: clinical non-mucoid P. aeruginosa isolate biofilm
[4] = test system: P. aeruginosa PAO1 biofilm; assay: continuous flow chamber biofilm, 3-day-old, harvested and plated on LB plates for viability; format: cell-based
Description: as §1

[5] = test system: clinical mucoid P. aeruginosa isolate biofilm
[6] = 0.5% acetic acid, 24 hours, AB minimal medium, pH 4.33
[7] = 1.0% acetic acid, 24 hours, AB minimal medium, pH 4.33

## NC[C@H]1O[C@H](O[C@H]2[C@H](O)[C@@H](O[C@H]3O[C@H](CO)[C@@H](O)[C@H](N)[C@H]3O)[C@H](N)C[C@@H]2N)[C@H](N)C[C@@H]1O [tobramycin, reference compound]
[1]; tobramycin alone, concentrations above 12.5 μg/ml
  reduction of bacterial viability: 5 fold

## O=C(O)c1cn(C2CC2)c2cc(N3CCNCC3)c(F)cc2c1=O [ciprofloxaxine, reference compound]
[1]
  synergistic antimicrobial effect in combination with acetic acid: analogous synergistic effects

## CC(=O)O [acetic acid]
[2]; [6]
  eradication of mature biofilm (viability by plating): reduced the number of viable cells
[2]; 1.0% acetic acid in sterile miliQ water
  eradication of mature biofilm (viability by plating): Complete eradication
[2]; [7]
  eradication of mature biofilm (viability by plating): complete eradication
[2]; 1.0% acetic acid, AB minimal medium, pH 4.33
  time to complete killing of all bacteria: 3 h
[3]
  eradication of biofilm: eradicates the biofilms
[4]; 0.5% acetic acid in sterile miliQ water
  eradication of mature biofilm (viability by plating): Complete eradication
[4]; [6]
  eradication of mature biofilm (viability by plating): completely eradicated
[4]; 0.5% acetic acid, AB minimal medium, pH 4.33
  time to complete killing of all bacteria: 3 h
[4]; [7]
  eradication of mature biofilm (viability by plating): completely eradicated
[5]
  eradication of biofilm: eradicates the biofilms
[1]; 0.5% acetic acid alone, pH 6.85
  antibacterial effect on static biofilm (CFU): no antibacterial effect
[1]; pH 5
  antimicrobial effect on static biofilm (CFU): reduced effect
[1]; pH 5.5 and above
  antimicrobial effect on static biofilm (CFU): no effect
[1]; pH interval 3-4.76
  antimicrobial effect on static biofilm (CFU): eradicated biofilms

## Cl [HCl, reference compound]
[4]; AB minimal medium adjusted to pH 4.33 using HCl, 24 hours (control)
  eradication of mature biofilm (viability by plating): had no effect

## colistin [reference compound]
[1]
  synergistic antimicrobial effect in combination with acetic acid: analogous synergistic effects

From patent US9655840B2, “Wound care products” (RIGSHOSPITALET, COPENHAGEN UNIVERSITY HOSPITAL, priority 2009, dated 2017)
